# Literature values, collected in article PMC9389804 (Journal of Hematology & Oncology, 2022).
# Parameters: method as in PMID 29567798
# Details: median follow-up of 5 years; cited from earlier work
smiles,measurement,value
Cc1ccc(C(=O)Nc2ccc(CN3CCN(C)CC3)c(C(F)(F)F)c2)cc1C#Cc1cnc2cccnn12 [ponatinib],incidence of arterial occlusive and venous thrombotic events,31.0%
